Measured values reported in patent publication US6683166B2, “Modified internucleoside linkages (ii)” (ISIS Pharmaceuticals, Inc., priority 1992, dated 2004).

Assays:
Format in all cases: binding
[1] = tested on: Target Duplex Sequence (DNA) 5′ AGAGAGAGAGAAAAA 3′; test: Thermal denaturation Tm, DNA-Triplex
Protocol: (§1) RNA and DNA duplex and DNA-triplex experiments utilizing certain desirable modified internucleoside linkages of this invention were conducted to determine those linkages' effect on the Tm values of the resulting oligonucleotides.
(§2) These experiments were carried out in a buffered solution (140 mM KCl, 5 mM Na2HPO4, and 1 mM MgCl2) at pH=6.6 (except for the 2′-5′ carbamate which was buffered at pH=7.0) according to the following protocol: 0.15 ODs of the target RNA/DNA was combined with 0.1 OD of the oligomer being assayed in a sterile eppendorf tube and dried. To this mixture was added 300 λ of Tm buffer and the solution was stirred. Tm values were then determined by a first derivative plot of absorbance versus temperature. Thermal denaturation analysis was carried out-with a heating rate of 0.25° C./min and absorbance was monitored at 260 nm.
(§3) The test oligomers that were synthesized for analysis were of the following sequence:
(§4) 5′-TC^mTC^mTC^mTC^mTC^mT^TT^TT-3′
(§5) where T=thymidine, C^m=5-methyl-2′-deoxycytidine, and T^T=a thymidine-thymidine dimer with an experimental linkage of the structure detailed in the table below. All other linkages were phosphodiester.

[2] = tested on: Single Stranded Target (DNA); test: Thermal denaturation Tm, DNA-duplex
Protocol: as §1, §2, §3, §4, §5

[3] = tested on: Single Stranded Target (RNA); test: Thermal denaturation Tm, DNA-RNA-duplex
Protocol: as §1, §2, §3, §4, §5

[4] = Tm change per substituted linkage vs control of the same group

In the case of “5′-2′ thioformacetal: Test oligomer 5′-TCmTCmTCmTCmTCmT^TT^TT-3′, the two T^T dimers having a 5′-2′ thioformacetal linkage; other linkages phosphodiester”, the “DNA-Triplex Tm” value ([1]; 140 mM KCl, 5 mM Na2HPO4, 1 mM MgCl2, pH 6.6) is reported as 39.0, the “DNA-Triplex ° C./subst” value ([1]; pH 6.6, Tm change per substituted linkage vs control) is reported as 0 ° C./subst and the “DNA-duplex Tm” value ([2]; 140 mM KCl, 5 mM Na2HPO4, 1 mM MgCl2, pH 6.6 (2′-5′ carbamate buffered at pH 7.0), first derivative of A260 vs temperature) is reported as 53.0. For the same substance, the “DNA-duplex ° C./subst” value [2, 4] was “+1.8 ° C./subst”, the “DNA-RNA-duplex Tm” value ([3]; 140 mM KCl, 5 mM Na2HPO4, 1 mM MgCl2, pH 6.6 (2′-5′ carbamate buffered at pH 7.0)) was 58.5 and the “DNA-RNA-duplex ° C./subst” value [3, 4] was −1.5 ° C./subst.
